Tested on: basal cell carcinoma (BCC) lesions on the face
Assay: Randomized, double-blind, vehicle-controlled study of Patidegib Topical Gel, 2% in Gorlin syndrome participants with PTCH1 mutation (Example 2)
Assay type: in vivo, human
Source text: The term “nSEB” refers to BCCs with a longest diameter of ≥5 mm that: • a. were not surgically eligible BCCs (SEBs) at baseline; • b. have grown by ≥2 mm in longest diameter from baseline; and • c. have been verified histologically.
The term “SEB” refers to surgically eligible BCCs with a longest diameter of ≥5 mm.
The term “resolved SEB lesions” refers to BCCs lesions which no longer requires a surgical removal treatment. In another embodiment the term “resolved SEB lesions” refers to BCCs lesions with a diameter <5 mm or the BCC lesions are completely disappeared.
A randomized, double-blind, stratified, vehicle-controlled study was done, measuring the efficacy and safety of Patidegib Topical Gel, 2%, applied topically twice daily to the face of adult participants with Gorlin syndrome. The Participants were required to apply the investigational product for 12 months. The primary endpoint is a comparison between the two treatment—Patidegib Topical Gel, 2%, versus Vehicle, resulted the of the number of new BCCs that develop over the 12 month period.
Participants will be randomized to receive Patidegib Topical Gel, 2%. The Patidegib Topical Gel, 2% will be dispensed to participants at each study visit and applied topically twice daily to the face.
Participants will be randomized to receive Vehicle. The Patidegib Topical Gel, Vehicle will be dispensed to participants at each study visit and applied topically twice daily to the face.
• 1. The participant must be age at least 18 years of age at the Screening Visit. • 2. The participant must provide written informed consent prior to any study procedures. • 3. The participant must meet diagnostic criteria for the basal cell nevus (Gorlin) syndrome including PTCH1 gene mutation, or at least 6 histologically confirmed facial BCC lesions at Baseline and PTCH1 gene mutation. • 4. The participant is willing to have blood collected to measure circulating drug levels. • 5. The participant is willing to abstain from application of a non-study topical medication (prescription or over the counter) to facial skin for the duration of the trial except as prescribed by the Investigator. Moisturizers and emollients are allowed. Participant will be encouraged to use their preferred sunscreen with a sun protector factor (SPF) of at least 30 daily on all exposed skin sites. • 6. If the participant is a woman of childbearing potential (WOCBP), they must be willing to use complete abstinence from sexual intercourse and/or they and their partner must be willing to use at least 2 highly-effective forms of birth control starting prior to Baseline, through the duration of the study, and for 12 months after last application of IP. • 7. If the participant is a male with a female sex partner who is a WOCBP, the participant must be willing to use condoms, even after a vasectomy, starting prior to Baseline, through the duration of the study, and for at least 8 months after the last application of IP. • 8. The participant is willing for all facial BCCs to be evaluated and treatment recommendations made only by the Investigator. • 9. The participant is willing to forego treatment of facial BCCs with anything other than the study IP except when the Investigator believes that delay of treatment of a facial BCC potentially might compromise the health of the subject. During the trial the only allowed form of treatment is surgical. Non-facial BCCs may be removed at the discretion of the Investigator or Primary Skin Care Physician (PSCP).
• 1. The subject has previously participated in a clinical trial evaluating patidegib topical gel. • 2. The participant has used topical treatment to the face or systemic therapies that might interfere with the evaluation of the study IP. Among these are use of the following: • a. 5-fluorouracil, imiquimod, diclofenac, or Ingenol mebutate (except as topical treatment to discrete non-facial BCCs) systemically or topically to the skin within the 2 months prior to the Screening Visit. • b. […]

[1] = PTCH1 mutation, baseline total facial BCC lesions at least 6, gel 2% twice daily to face, month 3
[2] = PTCH1 mutation, baseline total facial BCC lesions at least 6, gel 2% twice daily to face, month 6
[3] = PTCH1 mutation, baseline total facial BCC lesions at least 6, gel 2% twice daily to face, month 9
[4] = PTCH1 mutation, baseline total facial BCC lesions at least 6, gel 2% twice daily to face, month 12
[5] = PTCH1 mutation, baseline total facial BCC lesions at least 8, gel 2% twice daily to face, month 3
[6] = PTCH1 mutation, baseline total facial BCC lesions at least 8, gel 2% twice daily to face, month 6
[7] = PTCH1 mutation, baseline total facial BCC lesions at least 8, gel 2% twice daily to face, month 9
[8] = PTCH1 mutation, baseline total facial BCC lesions at least 8, gel 2% twice daily to face, month 12
[9] = PTCH1 mutation, baseline total facial BCC lesions at least 10, gel 2% twice daily to face, month 3
[10] = PTCH1 mutation, baseline total facial BCC lesions at least 10, gel 2% twice daily to face, month 6
[11] = PTCH1 mutation, baseline total facial BCC lesions at least 10, gel 2% twice daily to face, month 9
[12] = PTCH1 mutation, baseline total facial BCC lesions at least 10, gel 2% twice daily to face, month 12
[13] = PTCH1 mutation, gel 2% twice daily to face
[14] = PTCH1 mutation, gel 2% twice daily to face, month 3
[15] = PTCH1 mutation, gel 2% twice daily to face, month 6
[16] = PTCH1 mutation, gel 2% twice daily to face, month 9
[17] = PTCH1 mutation, gel 2% twice daily to face, month 12
[18] = per subject, PTCH1 mutation, by month 12
[19] = per subject, more than 6 BCC lesions at baseline, Baseline to month 12

CC1=C2C[C@H]3[C@@H](CC[C@@H]4C[C@H](NS(C)(=O)=O)CC[C@@]43C)[C@@H]2CC[C@@]2(C1)O[C@@H]1C[C@H](C)CN[C@H]1[C@H]2C [Patidegib]
Overall efficacy in treating or preventing BCC lesions (in words) (Gorlin syndrome with genetic mutation PTCH1): effective in treating or preventing BCC lesions
Number of qualifying nSEBs, observed, Mean (PTCH1 mutation, baseline total BCC facial lesions at least 6, gel 2% twice daily to face, month 3): 0.28
Number of qualifying nSEBs, observed, Mean (PTCH1 mutation, baseline total BCC facial lesions at least 6, gel 2% twice daily to face, month 6): 0.42
Number of qualifying nSEBs, observed, Mean (PTCH1 mutation, baseline total BCC facial lesions at least 6, gel 2% twice daily to face, month 9): 0.83
Number of qualifying nSEBs, observed, Mean (PTCH1 mutation, baseline total BCC facial lesions at least 6, gel 2% twice daily to face, month 12): 0.47
Number of new BCCs excluding no longer suspicious BCCs, observed, Mean [1]: 0.80
Proportion of SEBs clinically resolved, observed, Mean [1]: 6.61
Number of new BCCs excluding no longer suspicious BCCs, observed, Mean [2]: 1.68
Proportion of SEBs clinically resolved, observed, Mean [2]: 3.11
Number of new BCCs excluding no longer suspicious BCCs, observed, Mean [3]: 2.49
Proportion of SEBs clinically resolved, observed, Mean [3]: 10.22
Number of new BCCs excluding no longer suspicious BCCs, observed, Mean [4]: 2.78
Proportion of SEBs clinically resolved, observed, Mean [4]: 18.79
Number of new BCCs excluding no longer suspicious BCCs, observed, Mean [5]: 0.94
Number of qualifying nSEBs, observed, Mean [5]: 0.31
Proportion of SEBs clinically resolved, observed, Mean [5]: 5.98
Number of new BCCs excluding no longer suspicious BCCs, observed, Mean [6]: 1.96
Number of qualifying nSEBs, observed, Mean [6]: 0.52
Proportion of SEBs clinically resolved, observed, Mean [6]: 1.30
Number of new BCCs excluding no longer suspicious BCCs, observed, Mean [7]: 2.71
Number of qualifying nSEBs, observed, Mean [7]: 0.96
Proportion of SEBs clinically resolved, observed, Mean [7]: 8.73
Number of new BCCs excluding no longer suspicious BCCs, observed, Mean [8]: 2.96
Number of qualifying nSEBs, observed, Mean [8]: 0.52
Proportion of SEBs clinically resolved, observed, Mean [8]: 12.84
Number of new BCCs excluding no longer suspicious BCCs, observed, Mean [9]: 1.00
Number of qualifying nSEBs, observed, Mean [9]: 0.41
Proportion of SEBs clinically resolved, observed, Mean [9]: 8.50
Number of new BCCs excluding no longer suspicious BCCs, observed, Mean [10]: 1.93
Number of qualifying nSEBs, observed, Mean [10]: 0.64
Proportion of SEBs clinically resolved, observed, Mean [10]: 2.05
Number of new BCCs excluding no longer suspicious BCCs, observed, Mean [11]: 2.56
Number of qualifying nSEBs, observed, Mean [11]: 1.00
Proportion of SEBs clinically resolved, observed, Mean [11]: 13.39
Number of new BCCs excluding no longer suspicious BCCs, observed, Mean [12]: 2.88
Number of qualifying nSEBs, observed, Mean [12]: 0.56
Proportion of SEBs clinically resolved, observed, Mean [12]: 16.89
LS Mean for new BCCs per year (Std Err) [13]: 2.83
Predicted new BCCs per year using observed covariates (95% CI) [13]: 3.09
Number of new BCCs excluding no longer suspicious BCCs, observed, Mean [14]: 0.69
Number of qualifying nSEBs, observed, Mean [14]: 0.21
Proportion of SEBs clinically resolved, observed, Mean [14]: 5.42
Number of new BCCs excluding no longer suspicious BCCs, observed, Mean [15]: 1.59
Number of qualifying nSEBs, observed, Mean [15]: 0.38
Proportion of SEBs clinically resolved, observed, Mean [15]: 2.76
Number of new BCCs excluding no longer suspicious BCCs, observed, Mean [16]: 2.17
Number of qualifying nSEBs, observed, Mean [16]: 0.70
Proportion of SEBs clinically resolved, observed, Mean [16]: 8.11
Number of new BCCs excluding no longer suspicious BCCs, observed, Mean [17]: 2.61
Number of qualifying nSEBs, observed, Mean [17]: 0.50
Proportion of SEBs clinically resolved, observed, Mean [17]: 14.68
Total new BCCs (all subjects of the arm, PTCH1 mutation, by month 12): 114
Total BCCs surgeries from Baseline to month 12 (all subjects of the arm, more than 6 BCC lesions at baseline): 14
Rate-ratio: Patidegib/Vehicle (Std Err) (new BCCs per year, PTCH1 mutation): 0.91
Number of new BCCs by Month 12 - Max [18]: 8
Number of new BCCs by Month 12 - Median [18]: 2.0
Number of new BCCs by Month 12 - Min [18]: 0
Number of new BCCs by Month 12 - Q1 [18]: 1.0
Number of new BCCs by Month 12 - Q3 [18]: 5.0
Number of new BCCs by Month 12 - Mean (SD) (per subject, PTCH1 mutation, gel 2% twice daily to face, by month 12): 3.08
Number of BCCs surgeries - Max [19]: 5
Number of BCCs surgeries - Median [19]: 0.0
Number of BCCs surgeries - Min [19]: 0
Number of BCCs surgeries - Q1 [19]: 0
Number of BCCs surgeries - Q3 [19]: 1
Number of BCCs surgeries - Mean (SD) (per subject, more than 6 BCC lesions at baseline, Baseline to month 12, gel 2% twice daily to face): 0.6 (1.47)
